“Also recorded” adds a separate entry of the source.
What was measured:
[1] = test system: HT-29 colorectal xenografts; assay: Tumor growth inhibition in mice with HT-29 colorectal xenografts; format: in vivo; details: single agent, daily 10 mg/kg p.o., HT-29 xenografts, sub-optimal dose
Description: (§1) A panel of 14 well-characterized human colorectal cancer cell lines were used to characterize the in vitro effects of BIBF 1120 (B1), BIBW 2992 (B2) and their combinations. The antitumor effects of the 2 drugs were evaluated in mice with HT-29 colorectal xenografts.
The tumor growth inhibitory activities of B1 and B2 were determined for HT-29 xenografts after daily drug administration (10 mg/kg p.o.) or, for control animals, by oral administration of the solvent. […] Since the studies were designed to detect additive or synergistic interactions between the two drugs in subsequent experiments, only sub-optimal doses were used in these studies. Each group represents at least seven mice.
The tumor growth inhibitory activities of B1 and B2 were determined for HT-29 xenografts after daily drug administration (10 mg/kg p.o.) or, for control animals, by oral administration of the solvent.

angiogenesis = assay: Angiogenesis inhibition by CD31 staining; format: in vivo
[2] = test system: human colorectal cancer cell lines; assay: In vitro effects on human colorectal cancer cell lines; format: cell-based; details: for cytotoxic activity: conclusion, single agent; for growth inhibition / cell cycle effect: exposure of colorectal cancer cells to single agent
Description: as §1

Compound	tumor growth inhibitory activity (tumor volume over treatment time) [1]	inhibition of angiogenesis (angiogenesis)	cytotoxic activity [2]	growth inhibition / cell cycle effect [2]
COC(=O)c1ccc2c(c1)NC(=O)/C2=C(\Nc1ccc(N(C)C(=O)CN2CCN(C)CC2)cc1)c1ccccc1 [B1, 3-Z-[1-(4-(N-((4-methyl-piperazin-1-yl)-methylcarbonyl)-N-methyl-amino)-anilino)-1-phenyl-methylene]-6-methoxycarbonyl-2-indolinone]	exhibit growth inhibitor activity	inhibited angiogenesis; also recorded: antiangiogenic activity	cytotoxic	growth inhibition linked to extensive G1 arrest
CN(C)C/C=C/C(=O)Nc1cc2c(Nc3ccc(F)c(Cl)c3)ncnc2cc1O[C@H]1CCOC1 [B2, 4-[(3-chloro-4-fluorophenyl)amino]-6-{[4-(N,N-dimethylamino)-1-oxo-2-buten-1-yl]amino}-7-((S)-tetrahydrofuran-3-yloxy)-quinazoline]	exhibit growth inhibitor activity	inhibited angiogenesis; also recorded: antiangiogenic activity	cytotoxic	growth inhibition linked to extensive G1 arrest

— US20120157472A1, “METHOD FOR TREATING COLORECTAL CANCER” (BOEHRINGER INGELHEIM INTERNATIONAL GMBH, priority 2009, published 2012)
